The NIST ThermoML archive (doi:10.1021/je060124c)

Conditions: Liquid, Capillary tube (Ostwald / Ubbelohde) method

O [water]
viscosity [mPa·s]
Conditions	296.56 K	337.85 K	369.15 K	398.75 K	436.34 K	482.43 K	521.56 K	580.74 K
10000 kPa	0.9188	0.4362	0.296	0.2229	0.168	0.1308	0.1089	0.0838
30000 kPa	0.9185	0.4437	0.3028	0.2295	0.1743	0.1341	0.1143	0.0953
